The values below come from PubChem BioAssay AID549 (SRMLSC, 2006).

The source made the active and inactive calls.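 Rule for the calls: active = clearly stronger inhibition of phosphomevalonate kinase than of the coupling enzymes alone in a parallel counterscreen; inactive = the rest.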

This experiment addresses phosphomevalonate kinase (Streptococcus pneumoniae D39). Nature of the experiment: phosphomevalonate kinase inhibition IC50 – biochemical, mevalonate pathway, coupling enzyme counter-screen, dose response (AID 549). The note with it: PMK enzyme, PK/LDH coupled NADH absorbance 340 nm. (In general: The purpose of a counterscreen is to sort out artefacts and off-target activity.)
As to `O=C(COC(=O)CCc1c[nH]c(=O)[nH]1)Nc1ccccc1`, the outcome was inactive.

On to `CCC(C)(C)NC(=O)C(c1ccccc1F)N(Cc1ccco1)C(=O)c1csnn1` (centres undefined), for which the outcome was inactive.

Turning to `CS(=O)(=O)N1CCCC(C(=O)NCc2cccs2)C1` (centres undefined), the result was inactive.

Take `CC(C)CN(CC(C)C)S(=O)(=O)N1CCC(C(=O)NC2CCCCCCC2)CC1`: the outcome was inactive.

With `O=c1c[n+]([O-])c2ccccc2n1OCc1c(F)cccc1F`, the outcome was inactive.

Regarding `CN(C(=O)C1CCOC1)c1nnc(C2CCOC2)s1` (centres undefined), the result was inactive.

Regarding `COc1ccc(CNC(=O)C2CCN(S(=O)(=O)c3cccc4cccnc34)CC2)cc1`, the result was inactive.

In the case of `CCNC(=O)CN(c1ccc(C)cc1)S(=O)(=O)c1ccc(SC)cc1`, the result was inactive.

For `CCNc1nc(NC(C)(C)C)nc(N(C#N)CC)n1`, the result was inactive.

As for `Cn1c2ccccc2c2cnn(CC(=O)N3CCN(c4ncccn4)CC3)c(=O)c21`, the result was inactive.

For `O=C(O)CCS(=O)(=O)Cc1ccccc1F`, the outcome was inactive.

`Cc1csc(NC(=O)CN2CCCCCC2)n1`: the outcome was inactive.

In the case of `COc1cccc(CNC(=O)C2CCCN(c3nn4c(=O)cc(C)nc4s3)C2)c1` (centres undefined), the result was inactive.

Consider `N#Cc1cccc(CSc2nnc(CCCO)n2-c2ccccc2)c1`, for which the outcome was inactive.

As for `O=C(CN(C(=O)CNS(=O)(=O)c1ccccc1)C1CCCC1)NCc1ccco1`, the outcome was inactive.

`CCC(Sc1nccn1C)C(=O)Nc1cccc2ccccc12` (centres undefined): the result was inactive.

As to `CCC1Oc2ccc(C)cc2N(CC(=O)NCCN2CCCCCC2)C1=O` (centres undefined), the outcome was inactive.

Consider `Cc1nc2ccc3nc(NC(=O)c4ccco4)sc3c2s1`, for which the outcome was inactive.

Turning to `CCOCCCNC(=O)C1CCN(S(=O)(=O)CC)CC1`, the result was inactive.

Consider `CC(C)=CC(=O)Nc1ccc(Br)cc1`, for which the result was inactive.

Consider `O=C(Cn1cc(C(F)(F)F)ccc1=O)N1CCN(S(=O)(=O)c2ccccc2)CC1`, for which the result was inactive.

In the case of `Cc1cc(=O)n2[nH]c(-c3ccccc3Cl)cc2n1`, the outcome was inactive.

As to `CCOC(=O)c1ccc(NC(=O)CSc2nc(C)cc(=O)[nH]2)cc1`, the result was inactive.

Regarding `COc1ccccc1CN(Cc1cc2cc(C)cc(C)c2[nH]c1=O)Cc1nnnn1CC1CCCO1` (centres undefined), the outcome was inactive.

As for `C=CCSc1nnc(Cn2c(=O)sc3ccccc32)n1C`, the result was inactive.

As to `O=C(Nc1ccc(F)cc1)N(CCCN1CCOCC1)Cc1cc2cc3c(cc2[nH]c1=O)OCO3`, the result was inactive.

With `N#CC(C(=O)NC1CCCCC1)c1nc2ccccc2nc1N1CCCCC1` (centres undefined), the result was inactive.

As for `COc1ccc(Br)cc1CNC(=O)C1CCN(S(=O)(=O)N2CCCC2)CC1`, the outcome was inactive.

Regarding `CC(CN1CCN(C)CC1)OC(=O)c1ccc(Cl)cc1` (centres undefined), the result was inactive.

Regarding `CCOC(=O)C1CCN(C(=O)C2CCN(S(=O)(=O)N3CCCC3)CC2)CC1`, the outcome was inactive.

Take `CNS(=O)(=O)c1cccc(C(=O)OC2CCCCC2=O)c1` (centres undefined): the outcome was inactive.

As for `Cc1cc(OCC(=O)NCCO)cc(C)c1Cl`, the outcome was inactive.

With `Cc1ccc(C(c2nnnn2CC2CCCO2)N2CCN(C(=O)c3ccco3)CC2)cc1` (centres undefined), the outcome was inactive.

With `O=C(c1n[nH]c(=O)c2ccccc12)N1CCN(C2c3ccccc3-c3ccccc32)CC1`, the result was inactive.

On to `c1cncc(C(c2nnnn2C2CCCC2)N2CCCC2)c1` (centres undefined), for which the result was inactive.

As for `COc1ccc2c(c1OC)CN(C)CCc1cc3c(cc1C(O)C2)OCO3` (centres undefined), the result was inactive.

In the case of `COc1cccc2cc(C(=O)N3CCN(c4ccccc4F)CC3)c(=O)oc12`, the outcome was inactive.

Regarding `CCOCC(=O)NC1CCSC1=O` (centres undefined), the result was inactive.

Take `CCS(=O)(=O)N1CCC(C(=O)NCCc2ccccc2)CC1`: the result was inactive.

As to `CCCN(C(=O)c1ccccc1N)c1c(C)n(C)n(-c2ccccc2)c1=O`, the outcome was inactive.

As for `CCOc1ccc2[nH]c(=O)c(CN(CCO)C(=O)c3ccc(Br)cc3)cc2c1`, the result was inactive.

With `COC(=O)c1ccccc1S(=O)(=O)N(Cc1cc2ccc(OC)cc2[nH]c1=O)CC1CCCO1` (centres undefined), the outcome was inactive.

For `Cc1occc1C(=O)Nc1nnc(C(F)(F)F)s1`, the result was inactive.

For `CC(C)COC(=O)n1ccc(C(=O)N2CCCCC2)n1`, the outcome was inactive.

In the case of `Cc1c2c(nc3c(C(=O)NC4CCCCC4C)cnn13)CCCC2` (centres undefined), the result was inactive.

For `Cc1ccc(S(=O)(=O)N2CCN(c3nc(C(C)C)c4c(c3C#N)CC(C)(C)OC4)CC2)cc1`, the result was inactive.

On to `CS(=O)(=O)N1CCCC(C(=O)NCCc2ccc(Cl)cc2)C1` (centres undefined), for which the result was inactive.

As to `Cc1cc(C)n2c(SCC(=O)N(C)C3CCS(=O)(=O)C3)nnc2n1` (centres undefined), the result was inactive.

On to `CCOC(=O)C1=C(C)Nc2ccccc2N=C1NC(=O)CCCN1C(=O)c2ccccc2C1=O`, for which the outcome was inactive.

As to `Cn1nc(CC(=O)Nc2ncc(Br)s2)c2ccccc2c1=O`, the outcome was inactive.

`CCCCNc1nc2c(c(=O)n(C)c(=O)n2C)n1CCC`: the outcome was inactive.

`O=c1c(-c2ccccc2)c(O)c2cccc3c2n1CCC3`: the result was inactive.

Regarding `COc1ccc(N2CCN(CCNS(=O)(=O)c3cccc4nsnc34)CC2)cc1`, the result was inactive.

For `Cn1c(SCC(=O)NCc2ccco2)nc2ccccc2c1=O`, the result was inactive.

Turning to `COCCNC(=O)C(c1ccc(C)o1)N(Cc1ccc(OC)cc1)C(=O)Cn1nnc2ccccc21` (centres undefined), the outcome was inactive.

Take `CC(=O)N1CCC(N2CCN(c3ccccc3F)CC2)CC1`: the outcome was inactive.

As for `CCOC(=O)N1CCC(NC(=O)CCc2cn(C)c3ccccc23)CC1`, the result was inactive.

As for `CCOC(=O)c1c(NC(=O)c2cc(C3CC3)on2)sc2c1CCCC2`, the result was inactive.

As to `CCOc1ncccc1C(=O)OCc1cc(=O)n2c(n1)sc1ccccc12`, the result was inactive.

For `CC(C)OC(=O)CCC1(C(=O)O)CCC(=O)NC1` (centres undefined), the outcome was inactive.

As to `COC(=O)C1=C(C)OC(N)=C(C#N)C1c1cc(OC)c(OCC(N)=O)cc1Cl` (centres undefined), the outcome was inactive.

Consider `CCOc1cc(C(=O)NCc2nnc(SCC(=O)OC)n2C)cc(OCC)c1OCC`, for which the result was inactive.

In the case of `CCOC(=O)C1=C(NC(=O)c2ccc(Br)o2)Nc2ccccc2N=C1`, the result was inactive.

For `COCc1cc(=O)[nH]c(Nc2nc(C)c3ccc(C)cc3n2)n1`, the result was inactive.

`COCCCNC(=O)C1C2C=CC3(CN(Cc4ccc(C)cc4)C(=O)C13)O2` (centres undefined): the outcome was inactive.

Consider `CCC1CCCCN1CCCNC(=O)Cn1nc(-c2ccccc2)ccc1=O` (centres undefined), for which the result was inactive.

As for `Cc1nnc(SCC(=O)Nc2nsc(-c3ccccc3)n2)s1`, the outcome was inactive.

With `COc1ccc(-c2coc3c(CN4CCCCC4)c(O)c(CN4CCCCC4)c(O)c3c2=O)cc1`, the result was inactive.

Regarding `Cc1nc(NC(=O)c2ccco2)sc1C(=O)Nc1ccc(Br)cc1`, the result was inactive.

`Cc1cc(C)n2nc(SCc3cc(=O)n4c(C)cccc4n3)nc2n1`: the outcome was inactive.

For the molecule `O=C(CCN1C(=O)c2ccccc2C1=O)NC1=NCCS1`, the outcome was inactive.

As for `CC(OC(=O)c1cccs1)C(=O)NCC1CCCO1` (centres undefined), the outcome was inactive.

On to `CCCC(=O)Nc1cccc(NC(=O)CN2CCN(c3ccccc3OC)CC2)c1`, for which the result was inactive.

For `CCOc1ccc(Nc2nc(Cc3nnc(SCC(N)=O)o3)cs2)cc1`, the result was inactive.

`COCCNC(=O)c1ccc2c(c1)NC(=O)CS2`: the result was inactive.

Take `CCOC(=O)C(CCc1nnc(N)s1)C(=O)OCC`: the outcome was inactive.

Regarding `Cc1ccc(-n2c(CSc3nc(C)cc(C)n3)nnc2SCC(=O)NCc2ccco2)cc1`, the outcome was inactive.

Turning to `CCOC(=O)CNC(=O)Nc1nnc(-c2ccc(OCC)cc2)o1`, the outcome was inactive.

Turning to `O=C(Nc1ccc(-c2noc(COc3ccccc3Cl)n2)cc1)c1ccco1`, the outcome was inactive.

As for `Clc1ccc(C(c2nnnn2C2CCCC2)N2CCN(Cc3ccncc3)CC2)cc1` (centres undefined), the result was inactive.

Regarding `COc1ccc(OC)c(CNC(=O)C2CCCN(c3nc4ccccc4o3)C2)c1` (centres undefined), the outcome was inactive.

Turning to `O=C(Nn1c(C2CC2)nc2ccccc2c1=O)c1ccco1`, the result was inactive.

As for `O=C(c1ccc2ccccc2c1)N1CCN(c2ccc(O)cc2)CC1`, the result was inactive.

On to `Cc1noc(C)c1CSc1nnc(-c2ccncc2)n1-c1cccc(Cl)c1C`, for which the result was inactive.

Take `CS(=O)(=O)N(CC(=O)N1CCN(c2ccccc2)CC1)C1CCCCC1`: the result was inactive.

Regarding `CCOc1ccc2[nH]c(=O)c(C(c3nnnn3CC3CCCO3)N3CCc4ccccc4C3)cc2c1` (centres undefined), the result was inactive.

On to `Cc1ccc(NC(=O)CSc2nnc(Cn3c(=O)sc4ccccc43)n2C)cc1Cl`, for which the result was inactive.

Turning to `COc1ccc(S(=O)(=O)N2CCN(C3CCCCCCC3)CC2)cc1`, the outcome was inactive.

As for `COc1ccccc1NC(=O)C1=C(C)NC2=C(C(=O)CCC2)C1c1ccc(C)o1` (centres undefined), the result was inactive.

Regarding `CCn1c(SC(=O)NC2CCCCC2)nnc1-c1cccs1`, the outcome was inactive.

As for `CCOCCCN1C(=O)CN(C2CCCCC2)C(=O)C1c1ccc(OCC)c(OC)c1` (centres undefined), the outcome was inactive.

On to `Cc1sc2ncnc(NCC(c3ccco3)N(C)C)c2c1C` (centres undefined), for which the result was inactive.

On to `CCS(=O)(=O)N1CCC(C(=O)NCC2CCCO2)CC1` (centres undefined), for which the outcome was inactive.

`CN1CCc2c(sc3c2c(=O)n(-c2ccccc2)c2nnc(SCc4ccc(F)cc4)n32)C1`: the result was inactive.
